Experimental findings from ChEMBL document CHEMBL1909046, “DrugMatrix in vitro pharmacology data” are described below.

The target of data set [1] is T1, Type-2 angiotensin II receptor (Homo sapiens, UniProt P50052). Note: in other assays of this panel Not Active means under 50% inhibition at 10 µM.
T1 sequence (P50052 whole entry): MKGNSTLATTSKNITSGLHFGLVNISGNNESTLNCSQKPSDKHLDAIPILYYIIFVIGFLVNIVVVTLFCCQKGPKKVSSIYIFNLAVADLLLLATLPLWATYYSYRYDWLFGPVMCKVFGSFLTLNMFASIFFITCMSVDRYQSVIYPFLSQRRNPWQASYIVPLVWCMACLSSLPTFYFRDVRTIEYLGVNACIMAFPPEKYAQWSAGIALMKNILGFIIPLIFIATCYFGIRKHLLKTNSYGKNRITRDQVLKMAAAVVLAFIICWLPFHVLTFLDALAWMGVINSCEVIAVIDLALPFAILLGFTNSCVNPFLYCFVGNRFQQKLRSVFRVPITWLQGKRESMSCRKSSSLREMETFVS
It counts as cell-based. The following applies: cho-k1.

Data set [2] has as its target 5-hydroxytryptamine receptor 2B (Homo sapiens, UniProt P41595). Type of data set: cell membranes, CHO-K1, Membrane. Note: in other assays of this panel Not Active means under 50% inhibition at 10 µM.
A further data set deals with Substance-P receptor (Homo sapiens, UniProt P25103). Type of data set: cell membranes, CHO, Membrane. The following applies: cho.
Data set [3] in a line: DRUGMATRIX: Glutamate, NMDA, Agonism radioligand binding (ligand: [3H] CGP-39653). Type of data set: cell membranes, Rattus norvegicus, Wistar, Cerebral cortex, Membrane. The following applies: Not Active = under 50% inhibition at 10 µM.
For the next data set, the target named is Histamine H2 receptor (Homo sapiens, UniProt P25021). Type of data set: cell membranes, CHO-K1, Membrane. The following applies: cho-k1. Note: in other assays of this panel Not Active means under 50% inhibition at 10 µM.
Data set [4] can be described thus: DRUGMATRIX: Interleukin IL-1 radioligand binding (ligand: [125I] interleukin 1beta). It counts as cell membranes, Membrane. Particulars: nih3t3; Not Active = under 50% inhibition at 10 µM.
The next data set has as its target T2, Leukotriene C4 synthase (Cavia porcellus, UniProt A6XA80).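 Note: enzyme inhibition assay of leukotriene C4 synthase, using LTA4 as the substrate; in other assays of this panel Not Active means under 50% inhibition at 10 µM.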
T2 sequence (A6XA80 whole entry): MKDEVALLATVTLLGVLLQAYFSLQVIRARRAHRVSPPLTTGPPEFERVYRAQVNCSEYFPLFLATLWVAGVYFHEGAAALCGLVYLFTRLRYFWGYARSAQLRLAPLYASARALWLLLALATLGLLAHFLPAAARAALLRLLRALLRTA
Nature of the data set: biochemical. It counts as tissue-based, Lung.

Data set [5] can be described thus: DRUGMATRIX: Phosphodiesterase PDE3 enzyme inhibition (substrate: [3H]cAMP + cAMP). Particulars: platelet; Not Active = under 50% inhibition at 10 µM. It counts as tissue-based, Homo sapiens.
Data set [6] has as its target T3, Receptor-type tyrosine-protein phosphatase C (Homo sapiens, UniProt P08575).
T3 sequence (P08575 whole entry): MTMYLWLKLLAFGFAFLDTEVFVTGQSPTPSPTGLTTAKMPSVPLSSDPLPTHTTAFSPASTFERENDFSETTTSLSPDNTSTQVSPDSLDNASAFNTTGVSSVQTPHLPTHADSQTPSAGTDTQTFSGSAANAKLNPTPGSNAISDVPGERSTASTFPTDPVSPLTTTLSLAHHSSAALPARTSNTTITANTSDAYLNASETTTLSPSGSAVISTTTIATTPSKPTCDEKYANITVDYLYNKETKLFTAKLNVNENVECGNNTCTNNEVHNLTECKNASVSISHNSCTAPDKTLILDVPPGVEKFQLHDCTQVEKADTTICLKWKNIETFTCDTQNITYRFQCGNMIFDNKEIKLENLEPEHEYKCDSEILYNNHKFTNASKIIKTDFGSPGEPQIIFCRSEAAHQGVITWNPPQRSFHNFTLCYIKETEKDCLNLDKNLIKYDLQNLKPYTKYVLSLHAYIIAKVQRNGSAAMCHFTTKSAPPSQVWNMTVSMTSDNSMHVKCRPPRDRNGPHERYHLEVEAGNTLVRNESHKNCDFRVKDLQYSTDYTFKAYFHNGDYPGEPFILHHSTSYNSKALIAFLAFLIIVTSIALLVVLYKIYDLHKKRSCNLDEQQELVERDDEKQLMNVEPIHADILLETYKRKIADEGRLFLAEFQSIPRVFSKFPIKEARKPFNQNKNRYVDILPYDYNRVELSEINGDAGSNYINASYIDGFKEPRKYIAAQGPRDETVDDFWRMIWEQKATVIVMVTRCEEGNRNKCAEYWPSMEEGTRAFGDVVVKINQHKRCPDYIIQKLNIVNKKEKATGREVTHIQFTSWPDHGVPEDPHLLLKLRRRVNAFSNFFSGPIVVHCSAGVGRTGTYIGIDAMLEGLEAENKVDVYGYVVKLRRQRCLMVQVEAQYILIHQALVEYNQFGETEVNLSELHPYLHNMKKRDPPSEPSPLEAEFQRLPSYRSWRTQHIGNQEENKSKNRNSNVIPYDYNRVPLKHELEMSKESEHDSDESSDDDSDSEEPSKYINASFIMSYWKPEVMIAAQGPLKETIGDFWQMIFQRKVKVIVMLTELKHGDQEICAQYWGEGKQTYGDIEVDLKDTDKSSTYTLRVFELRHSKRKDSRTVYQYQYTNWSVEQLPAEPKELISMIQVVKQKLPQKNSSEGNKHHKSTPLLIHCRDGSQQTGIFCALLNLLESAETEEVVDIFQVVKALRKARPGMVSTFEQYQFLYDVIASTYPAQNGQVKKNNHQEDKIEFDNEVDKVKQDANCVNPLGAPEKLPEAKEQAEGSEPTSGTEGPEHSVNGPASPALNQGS
On the set-up: species or system Escherichia coli.

A short description of data set [7]: DRUGMATRIX: Purinergic P2X radioligand binding (ligand: [3H] alpha, beta-Methylene-ATP). Type of data set: cell membranes, Oryctolagus cuniculus, New Zealand albino, Urinary bladder, Membrane. The following applies: Not Active = under 50% inhibition at 10 µM.
The next data set addresses T4, Cytochrome P450 2A6 (Homo sapiens, UniProt P11509).
T4 sequence (P11509 whole entry): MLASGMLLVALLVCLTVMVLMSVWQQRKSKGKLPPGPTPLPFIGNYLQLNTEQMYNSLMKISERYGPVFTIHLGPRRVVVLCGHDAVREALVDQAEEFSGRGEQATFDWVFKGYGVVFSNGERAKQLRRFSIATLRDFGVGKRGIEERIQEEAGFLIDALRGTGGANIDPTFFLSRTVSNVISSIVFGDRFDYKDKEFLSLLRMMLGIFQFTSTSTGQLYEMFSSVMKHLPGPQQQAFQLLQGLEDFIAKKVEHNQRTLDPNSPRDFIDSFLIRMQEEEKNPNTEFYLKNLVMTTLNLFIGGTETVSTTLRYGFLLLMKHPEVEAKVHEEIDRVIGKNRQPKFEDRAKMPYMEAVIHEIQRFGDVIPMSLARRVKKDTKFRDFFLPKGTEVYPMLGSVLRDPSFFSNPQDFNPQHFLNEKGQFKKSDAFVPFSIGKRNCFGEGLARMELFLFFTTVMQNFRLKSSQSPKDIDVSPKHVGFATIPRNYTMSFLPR
The following applies: bti-tn-5b1-4.

5-hydroxytryptamine receptor 2B, sequence (P41595 whole entry): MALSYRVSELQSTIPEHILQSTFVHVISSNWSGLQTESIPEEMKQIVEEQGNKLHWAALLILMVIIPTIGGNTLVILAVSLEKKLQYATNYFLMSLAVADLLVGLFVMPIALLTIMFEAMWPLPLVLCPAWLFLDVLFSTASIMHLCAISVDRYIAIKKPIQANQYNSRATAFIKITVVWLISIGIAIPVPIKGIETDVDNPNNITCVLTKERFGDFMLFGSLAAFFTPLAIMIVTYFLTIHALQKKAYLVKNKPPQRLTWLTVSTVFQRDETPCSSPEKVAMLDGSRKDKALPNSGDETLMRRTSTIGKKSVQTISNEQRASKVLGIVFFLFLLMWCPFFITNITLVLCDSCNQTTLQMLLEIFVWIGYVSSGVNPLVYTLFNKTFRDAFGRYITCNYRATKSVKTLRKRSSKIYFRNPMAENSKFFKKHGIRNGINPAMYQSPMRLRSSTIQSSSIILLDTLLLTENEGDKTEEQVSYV
Substance-P receptor, sequence (P25103 whole entry): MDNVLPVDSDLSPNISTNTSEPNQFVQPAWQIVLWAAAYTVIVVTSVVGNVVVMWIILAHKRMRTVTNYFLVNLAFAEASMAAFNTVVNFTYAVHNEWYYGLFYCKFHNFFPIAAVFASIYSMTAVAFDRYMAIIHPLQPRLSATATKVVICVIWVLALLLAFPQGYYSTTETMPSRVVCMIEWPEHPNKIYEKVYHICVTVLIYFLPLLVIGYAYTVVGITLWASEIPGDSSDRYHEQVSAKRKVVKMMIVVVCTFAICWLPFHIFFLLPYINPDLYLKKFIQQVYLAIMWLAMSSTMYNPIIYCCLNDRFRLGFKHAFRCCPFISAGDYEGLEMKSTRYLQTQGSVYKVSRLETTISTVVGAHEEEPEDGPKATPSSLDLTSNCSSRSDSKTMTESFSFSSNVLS
Histamine H2 receptor, sequence (P25021 whole entry): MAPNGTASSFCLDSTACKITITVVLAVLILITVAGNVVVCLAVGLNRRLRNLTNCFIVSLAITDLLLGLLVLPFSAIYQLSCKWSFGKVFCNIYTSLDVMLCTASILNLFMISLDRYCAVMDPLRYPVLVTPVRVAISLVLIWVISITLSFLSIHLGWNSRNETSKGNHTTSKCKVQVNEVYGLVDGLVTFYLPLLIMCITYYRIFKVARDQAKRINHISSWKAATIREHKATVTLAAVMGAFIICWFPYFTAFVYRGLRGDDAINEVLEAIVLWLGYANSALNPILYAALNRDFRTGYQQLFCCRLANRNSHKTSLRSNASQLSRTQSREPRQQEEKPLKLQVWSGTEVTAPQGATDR

As to `COS(C)(=O)=O` [METHANESULFONIC ACID METHYL ESTER], the half-maximal inhibitory concentration (IC50) entry (in [1]; in data set [2] (cho-k1); on Substance-P receptor; in data set [3]; against Histamine H2 receptor; in data set [4]) was “Not Active” each time. Besides, the IC50 entry (against Leukotriene C4 synthase; in data set [5]; in data set [6]; in data set [7]; at Cytochrome P450 2A6) was “Not Active” throughout. Besides, the Ki result (in [3]; in [4]; in data set [5]; in data set [7]; on Cytochrome P450 2A6) was “Not Active” in each case.
As for `COC(=O)c1ccc(O)cc1` [METHYLPARABEN], the IC50 result (in data set [1]; in [2] (cho-k1); against Substance-P receptor; in [3]; on Histamine H2 receptor; in [4]) was “Not Active” in each case. The IC50 entry (against Leukotriene C4 synthase; in [5]; in data set [6]; in [7]; against Cytochrome P450 2A6) was “Not Active” each time. The Ki entry (in [3]; in [4]; in data set [5]; in [7]; at Cytochrome P450 2A6) was “Not Active” in each case.
With `C[C@](N)(Cc1ccc(O)cc1)C(=O)O` [METYROSINE], the half-maximal inhibitory concentration (IC50) entry (in data set [1]; in data set [2] (cho-k1); against Substance-P receptor; in data set [3]; against Histamine H2 receptor; in [4]) was “Not Active” in each case. The IC50 result (against Leukotriene C4 synthase; in data set [5]; in data set [6]; in data set [7]; against Cytochrome P450 2A6) was “Not Active” each time. The Ki result (in data set [3]; in data set [4]; in [5]; in data set [7]; on Cytochrome P450 2A6) was “Not Active” throughout.
Consider `Clc1ccc(C(c2ccccc2Cl)C(Cl)Cl)cc1` (stereo not drawn) [MITOTANE], for which the IC50 entry is “Not Active” in [1]; 4.83 µM in data set [2] (read-out: IC50); “Not Active” against Substance-P receptor; “Not Active” in data set [3]; “Not Active” against Histamine H2 receptor; “Not Active” in data set [4]. The concentration for half-maximal inhibition (IC50) result (against Leukotriene C4 synthase; in [5]; in data set [6]; in data set [7]; on Cytochrome P450 2A6) was “Not Active” each time. The inhibitory constant (Ki) was 3.08 µM in data set [2] (read-out: Ki); “Not Active” in data set [3]; “Not Active” in data set [4]; “Not Active” in data set [5]; “Not Active” in data set [7]; “Not Active” at Cytochrome P450 2A6.
For `COc1c(C)c2c(c(O)c1C/C=C(\C)CCC(=O)OCCN1CCOCC1)C(=O)OC2` [MYCOPHENOLATE MOFETIL], the concentration for half-maximal inhibition (IC50) result (in data set [1]; in [2] (cho-k1); at Substance-P receptor; in data set [3]; against Histamine H2 receptor; in data set [4]) was “Not Active” in each case. For the same molecule, the concentration for half-maximal inhibition (IC50) result (at Leukotriene C4 synthase; in data set [5]; in data set [6]; in data set [7]; against Cytochrome P450 2A6) was “Not Active” in each case. Also, the Ki entry (in data set [3]; in data set [4]; in data set [5]; in data set [7]; at Cytochrome P450 2A6) was “Not Active” in each case.
`NNc1ccccc1` [PHENYLHYDRAZINE]: the half-inhibitory concentration (IC50) result (in data set [1]; in data set [2] (cho-k1); on Substance-P receptor; in data set [3]; at Histamine H2 receptor; in data set [4]) was “Not Active” throughout. The concentration for half-maximal inhibition (IC50) entry (against Leukotriene C4 synthase; in [5]; in data set [6]; in data set [7]; at Cytochrome P450 2A6) was “Not Active” in each case. Besides, the Ki entry (in [3]; in data set [4]; in [5]; in data set [7]; on Cytochrome P450 2A6) was “Not Active” each time.
Regarding `CC(=O)[C@H]1CC[C@H]2[C@@H]3CCC4=CC(=O)CC[C@]4(C)[C@H]3CC[C@]12C` [PROGESTERONE], the 50% inhibitory concentration (IC50) result (in data set [1]; in data set [2] (cho-k1); at Substance-P receptor; in data set [3]; against Histamine H2 receptor; in [4]) was “Not Active” throughout. In addition, the IC50 entry (against Leukotriene C4 synthase; in [5]; in [6]; in data set [7]; at Cytochrome P450 2A6) was “Not Active” throughout. Besides, the inhibitory constant (Ki) result (in data set [3]; in [4]; in [5]; in data set [7]; at Cytochrome P450 2A6) was “Not Active” in each case.

The IC50 is the point on the concentration scale where inhibition reaches its midpoint. A word on the Ki: it is a dissociation constant, usually derived from enzyme kinetics or from competition with a known ligand.
